This test addresses T1, Methanococcus jannaschii selecase, wild type, SEQ ID No: 1 (Methanocaldococcus jannaschii, UniProt Q58610).
T1 sequence (Q58610 1-110): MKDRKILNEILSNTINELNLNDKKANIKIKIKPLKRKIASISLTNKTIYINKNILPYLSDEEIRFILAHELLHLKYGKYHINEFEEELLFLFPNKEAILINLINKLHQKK
The test can be described thus: Inhibition assay with fluorogenic substrate Abz-E-L-A-Y-F-Y-P-E-K(dnp). Format: biochemical. As to conditions: for activity at 100 µM: inhibitor 0.1 mM. Here is the method: Proteolytic activities were assayed at 37°C in buffer E (50 mM MES, 150 mM NaCl, pH 5.5), buffer F (50 mM HEPES, 150 mM NaCl, pH 7.5) or buffer G (50 mM CHES, 150 mM NaCl, pH 9.5) at a final protein concentration of 50 µg/ml unless otherwise stated.
For inhibition assays, selecase (at 2 µM in buffer F) was incubated for 30 min with different classes of protease inhibitors and the remaining proteolytic activity was then measured using the fluorogenic substrate Ab[…](dnp) at 37°C. Metal substitution assays were performed by removing the pre-existing metal upon purification through dialysis against 10 mM and 1 mM 1,10-phenanthroline and subsequent dialysis against 1 mM and 10 µM chloride or sulfate salt of a set of divalent metals, similarly as described above to obtain fully active protein. Metals tested were zinc, cobalt, magnesium, manganese, calcium, cadmium, copper, and nickel.

The mark [1] stands for this setting: inhibitor 1 mM, selecase 2 µM in buffer F (50 mM HEPES, 150 mM NaCl, pH 7.5), incubated 30 min with inhibitor, remaining activity at 37°C, no inhibitor = 100, mean of three, SD within ±5, read-out: Relative activity (%).
Setting [2] is: selecase 2 µM in buffer F (50 mM HEPES, 150 mM NaCl, pH 7.5), incubated 30 min with inhibitor, remaining activity at 37°C, no inhibitor = 100, mean of three, SD within ±5, read-out: Relative activity (%).
Where [3] appears, read: inhibitor 1 mM, selecase 2 µM in buffer F (50 mM HEPES, 150 mM NaCl, pH 7.5), incubated 30 min with inhibitor, remaining activity at 37°C, no inhibitor = 100, mean of three, SD within ±5.

The values below come from patent publication EP2845863A1, “Mathanococcus jannaschii protease and its use” (Consejo Superior de Investigaciones Cientificas (CSIC), priority 2013, dated 2015).

Like-named read-outs stand apart in the source and are kept apart here. Non-standard residues stand in square brackets, D forms with d. Residues, ends and D or L forms follow the SMILES beside them. *: point of attachment. Sta = CC(C)C[C@H](N)[C@@H](O)CC(=O)O; Isovaleryl = CC(C)CC(=O)*

With `N=C(N)c1ccccc1` [Benzamidine], under setting [1], the activity at 1000 µM was 66%. Turning to `CC(C)C[C@H](NC(=O)[C@H]1O[C@@H]1C(=O)O)C(=O)NCCCCNC(=N)N` [E-64], the activity at 100 µM under setting [2] was 98%.

For the molecule `O=C(O)CN(CCN(CC(=O)O)CC(=O)O)CC(=O)O` [EDTA], the activity at 1000 µM (pH 7.5, read-out: Relative activity (%)) was determined as 0%. Turning to `O=S(=O)(F)Cc1ccccc1` [PMSF], the “Relative activity (%)” value under setting [3] is given as 82%.

Consider `NCCc1ccc(S(=O)(=O)F)cc1` [Pefabloc], for which the “Relative activity (%)” value under setting [3] was determined as 78%. With `CC(C)CC(=O)N[C@H](C(=O)N[C@H](C(=O)N[C@@H](CC(C)C)[C@@H](O)CC(=O)N[C@@H](C)C(=O)N[C@@H](CC(C)C)[C@@H](O)CC(=O)O)C(C)C)C(C)C` [Pepstatin A] (Isovaleryl-VV[Sta]A[Sta]-OH), the activity at 100 µM under setting [2] amounted to 75%.

In the case of `NC(=O)CI` [lodoacetamide], the activity at 1000 µM under setting [1] is 79%.
